How the values were obtained:
Experiment in all cases: Cell growth inhibition assay (Cell Titer Glo)
Format in all cases: cell-based, human
[1] = test system: 184A1; conditions: 184A1, HMEC, 72 h
Protocol: (§1) Cell culture: Breast cell lines were obtained from the ATCC and from collections developed in the laboratories of Drs. Steve Ethier and Adi Gazdar.
(§2) Cell growth inhibition assay and data analysis: Cells were plated at proper density in 96-well plates such that they would remain in log growth at the end of assay time. The cells were allowed to attach overnight before being exposed to CGC-11047 for 72 h. Drugs were dissolved in water as 100 mM stock. For the dose response study, a set of 9 doses from 5×10^−3 to 1.3×10^−8 M (final concentration) in 1:5 serial dilution were added in triplicate wells. The final DMSO concentration in the treated well was 0.3% or less. The cell growth was determined using Cell Titer Glo (CTG) assay (CellTiter-Glo Luminescent Cell Viability Assay, Promega, Madison, Wis.), with slight modification form manufacturer's protocol, at day 0 (time when drug was added) and at day 3 of drug exposure. Briefly, CTG reagent was diluted with PBS (1:1, volume: volume) and the culture media was removed from the 96-well plate prior to adding 50 μl per well of the diluted CTG reagent. Luminescence from the assay was recorded using BIO-TEK FLx800.
(§3) Data calculations were made according to the method described by the NCI/NIH DTP Human Tumor Cell Line Screen Process (http://dtp.nci.nih.gov/branches/btb/ivclsp.html) and as described previously (Monks, A et al., JNCI 83:757-766, 1991). The percent growth curve is calculated as [(T−T0)/(C−T0)]×100, where T0 is the cell count at day 0, C is the vehicle control (e.g. 0.3% DMSO without drug) cell count at day 3, and T is the cell count at the test concentration. The GI50 and TGI value are determined as the drug concentration that results in a 50% and 0% growth at 72 h drug exposure. LC50 is calculated as [(T−T0)/T0]×100=−50, when T<T0.

[2] = test system: 184B5; conditions: 184B5, HMEC, 72 h
Protocol: as §1, §2, §3

[3] = test system: BT483; conditions: BT483, Luminal, 72 h
Protocol: as §1, §2, §3

[4] = test system: BT549; conditions: BT549, Basal B, 72 h
Protocol: as §1, §2, §3

[5] = test system: HCC1143; conditions: HCC1143, Basal A, 72 h
Protocol: as §1, §2, §3

[6] = test system: HCC1428; conditions: HCC1428, Luminal, 72 h
Protocol: as §1, §2, §3

[7] = test system: HCC1500; conditions: HCC1500, Basal B, 72 h
Protocol: as §1, §2, §3

[8] = test system: HCC1569; conditions: HCC1569, Basal A, 72 h
Protocol: as §1, §2, §3

[9] = test system: HCC2185; conditions: HCC2185, Luminal, 72 h
Protocol: as §1, §2, §3

[10] = test system: HCC3153; conditions: HCC3153, Basal A, 72 h
Protocol: as §1, §2, §3

[11] = test system: HCC38; conditions: HCC38, Basal B, 72 h
Protocol: as §1, §2, §3

[12] = test system: HCC70; conditions: HCC70, Basal A, 72 h
Protocol: as §1, §2, §3

[13] = test system: MCF10A; conditions: N, Basal B, 72 h
Protocol: as §1, §2, §3

[14] = test system: MCF12A; conditions: N, Basal B, 72 h
Protocol: as §1, §2, §3

[15] = test system: MDAMB157; conditions: MDAMB157, Basal B, 72 h
Protocol: as §1, §2, §3

[16] = test system: MDAMB436; conditions: MDAMB436, Basal B, 72 h
Protocol: as §1, §2, §3

[17] = test system: MDAMB453; conditions: MDAMB453, Luminal, 72 h
Protocol: as §1, §2, §3

[18] = test system: MDAMB468; conditions: MDAMB468, Basal A, 72 h
Protocol: as §1, §2, §3

[19] = test system: SKBR3; conditions: SKBR3, Luminal, 72 h
Protocol: as §1, §2, §3

[20] = test system: SUM1315MO2; conditions: SUM1315MO2, Basal B, 72 h
Protocol: as §1, §2, §3

[21] = test system: SUM229PE; conditions: Basal B, 72 h
Protocol: as §1, §2, §3

[22] = test system: T47D; conditions: Luminal, 72 h
Protocol: as §1, §2, §3

[23] = test system: UACC812; conditions: UACC812, Luminal, 72 h
Protocol: as §1, §2, §3

[24] = test system: ZR751; conditions: ZR751, Luminal, 72 h
Protocol: as §1, §2, §3

SMILES: CCNCCCNC/C=C\CNCCCNCC [CGC-11047]
- TGI [1]: 220 µM
- GI50 ([1]; Homo sapiens): 2 µM
- TGI [2]: 400 µM
- GI50 ([2]; Homo sapiens): 300 µM
- TGI [3]: 1300 µM
- GI50 ([3]; Homo sapiens, BT-483): 900 µM
- TGI [4]: 1300 µM
- GI50 ([4]; Homo sapiens, BT-549): 1 µM
- TGI [5]: 320 µM
- GI50 ([5]; Homo sapiens): 2 µM
- TGI [6]: 300 µM
- GI50 ([6]; Homo sapiens): 1 µM
- TGI [7]: 600 µM
- GI50 ([7]; Homo sapiens): 20 µM
- TGI [8]: 2000 µM
- GI50 ([8]; Homo sapiens): 220 µM
- TGI [9]: 500 µM
- GI50 ([9]; Homo sapiens): 90 µM
- TGI [10]: 8 µM
- GI50 ([10]; Homo sapiens): 1.3 µM
- TGI [11]: 300 µM
- GI50 ([11]; Homo sapiens): 40 µM
- TGI [12]: 0.53 µM
- GI50 ([12]; Homo sapiens): 0.4 µM
- GI50 ([13]; Homo sapiens, MCF-10A): 200 µM
- TGI [13]: 3300 µM
- GI50 ([14]; Homo sapiens, MCF-12A): 100 µM
- TGI [14]: >100 µM
- GI50 ([15]; Homo sapiens, MDA-MB-157): 200 µM
- TGI [15]: 1000 µM
- GI50 ([16]; Homo sapiens, MDA-MB-436): 1000 µM
- TGI [16]: 3000 µM
- GI50 ([17]; Homo sapiens, MDA-MB-453): 500 µM
- TGI [17]: >500 µM
- GI50 ([18]; Homo sapiens, MDA-MB-468): 0.5 µM
- TGI [18]: 2000 µM
- GI50 ([19]; Homo sapiens, SK-BR-3): 5000 µM
- TGI [19]: >5000 µM
- GI50 ([20]; Homo sapiens): 700 µM
- TGI [20]: 1300 µM
- TGI [21]: 1100 µM
- GI50 ([21]; Homo sapiens): 90 µM
- GI50 ([22]; Homo sapiens): 0.4 µM
- TGI [22]: 200 µM
- GI50 ([23]; Homo sapiens, UACC-812): 21 µM
- TGI [23]: 300 µM
- GI50 ([24]; Homo sapiens, ZR-75-1): 13 µM
- TGI [24]: 800 µM

From patent US20110183336A1, “Method to Predict Responsiveness of Breast Cancer to Polyamine-Type Chemotherapy” (THE REGENTS OF THE UNIVERSITY OF CALIFORNIA, priority 2007, published 2011)
